Test results taken from patent US8815919B2, “Oxadiazole derivatives” (Merck Serono SA, priority 2009, dated 2014).
Structures can show the parent of a compound that is named as a salt. Where two headings read alike, the source gives them in different places.

Assays:
S1P3 = S1P3 (Homo sapiens, UniProt Q99500); assay: Receptor binding assay, [33P]sphingosine 1-phosphate competition, S1P3 membranes, WGA SPA beads
Method: (§1) Membranes were prepared from CHO cells expressing S1P1 or S1P3 for use in ligand and […] binding studies. Cells were suspended in 50 mM TRIS, pH 7.4, 2 mM EDTA, 250 mM Sucrose (buffer A) and 1× Complete protease inhibitor cocktail (Roche), and disrupted at 4° C. by N2 decompression using a cell disruption bomb (Parr Instrument). Following centrifugation at 1000 RPM for 10 min at 4° C., the supernatant was diluted (2×) in buffer A and centrifuged again at 19000 RPM for 75 min at 4° C. The pellet was then suspended in 10 mM HEPES, pH 7.4, 1 mM EDTA, 250 mM Sucrose (Buffer B), and 1× Complete EDTA-free protease inhibitor cocktail and homogenized using a potter. Membranes were flash frozen in liquid N2 and stored at −80° C.
(§2) Receptor binding assay: [33P]sphingosine 1-phosphate (3000 Ci/mmol; American Radiolabeled Chemicals, Inc.) was added to test compounds in 20% DMSO by competition. Membranes and WGA SPA beads (GE Healthcare) were added to give a final volume of 100 μl in 96-well plates or 50 μl in 384-well plates with assay concentrations of […] [33P]sphingosine 1-phosphate (respectively for S1P1 or S1P3), 50 mM HEPES, pH 7.5, 5 mM MgCl2, 100 mM NaCl, 0.4% fatty acid-free BSA, 1-5 μg/well of proteins in 96-well plates vs 0.6-1 μg/well of proteins in 384-well plates and 100 μg/well of WGA SPA beads in 96-well plates vs 75 μg/well of WGA SPA beads in 384-well plates. Binding was performed for 60 min at RT on a shaker and bound radioactivity was measured on a PerkinElmer 1450 MicroBeta counter. Triplicate samples were averaged and normalized as percentage of inhibition relative to total binding (only DMSO in well) and nonspecific binding (1000-fold excess of unlabeled S1P). Binding data were analyzed using the GraphPad Prism program or Genedata software.

S1P1 [1] = target: T1, S1P1 (Homo sapiens, UniProt P21453); assay: S1P1 internalization assay in S1P1-U2OS cells (S1P1-EGFP), cell imaging; format: cell-based; parameters: host or cells: U2OS (human bone osteosarcoma epithelial cells), CMV promoter, geneticin selection; settings: 1 hour incubation
Method: Cellular functional assays: Internalization of Sphingosine-1-phosphate receptor 1 (S1P1) in a human Cell line (U2OS) in a 384-well format using a Cell Imaging analysis. • Jo, E.; Sanna, M. G.; Gonzalez-Cabrera, P. J.; Thangada, S.; Tigyi, S.; Osborne, D. A.; Hla, T.; Parrill, A. L.; Rosen, H. Chem. Biol. 2005, 12, 703
The S1P1 internalization assay was performed in 384 well plates (Corning® 384 black with clear bottom 3712) using S1P1-U2OS cells from Biolmage (C039A), a human epithelial cell line (Human Bone Osteosarcoma Epithelial Cells). These cells expressed the human S1P1 Receptor fused to the green fluorescent protein (EGFP). A standard CMV promoter (cytomegalovirus promoter) controls the expression of S1P1-EGFP and continuous expression was maintained by addition of geneticin to the culture medium.
S1P1 Receptor desensitization induced the internalization of the membrane-localized S1P1-EGFP fusion protein to endosomes, which can be monitored by cell imaging analysis. The cells are plated in low serum medium (Dulbecco's Modified Eagle Medium (DMEM) with Glutamax-1 and high glucose, 1% Penicillin/Streptomycin, 1% Fetal Calf Serum (FCS), 0.5 mg/ml Geneticin) overnight.
The next day, S1P1-U2OS cells are incubated in 20 μl serum free medium (DMEM with Glutamax-1 and high glucose, 0.1% of fatty-acid free Bovin Serum Albumin (BSA), 10 mM, N′-2-Hydroxyethylpiperazine-N′-2 ethanesulphonic acid (HEPES) 1M) for 2 hours at 37° C./5% CO2. The cells are then treated with 4 μl compounds/agonists (6×/3% DMSO) for a total volume of 24 μl, and plates are incubated for 1 hour at 37° C./5% CO2.
S1P1-U2OS cells are fixed with 25 μl Paraformaldehyde 8% and stained with Hoechst 33345 dye (1:1000) for 20 minutes.
They were then washed 3 times with Phosphate Buffered Saline (PBS) and plates are sealed. The internalization of the receptor S1P1-EGFP is measured on Cellomics by calculating the “spot count per object” (“object” corresponds to nuclear and “spot” corresponds to S1P1-EGFP receptor). Internalization data were observed thanks to vHCS View and analyzed using Genedata® software.
Target sequence in this assay (P21453 whole entry): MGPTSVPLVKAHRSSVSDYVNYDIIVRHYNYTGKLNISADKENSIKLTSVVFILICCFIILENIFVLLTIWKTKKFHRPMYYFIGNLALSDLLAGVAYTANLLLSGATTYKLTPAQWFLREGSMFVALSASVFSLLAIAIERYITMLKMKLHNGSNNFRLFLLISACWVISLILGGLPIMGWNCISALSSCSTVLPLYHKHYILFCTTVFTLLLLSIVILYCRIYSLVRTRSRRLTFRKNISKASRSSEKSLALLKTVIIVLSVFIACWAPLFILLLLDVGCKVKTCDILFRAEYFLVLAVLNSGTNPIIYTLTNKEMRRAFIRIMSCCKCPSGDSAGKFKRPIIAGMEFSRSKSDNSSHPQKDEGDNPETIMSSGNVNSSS

S1P1 [2] = target: T1, S1P1; assay: Receptor binding assay, [33P]sphingosine 1-phosphate competition, S1P1 membranes, WGA SPA beads
Method: as §1, §2
Target sequence in this assay (P21453 whole entry, species assumed): as the sequence (P21453 whole entry) above

[3] = 96 well-plate, read-out: S1P3 binding Ki (M) (96 well-plate)
[4] = 384 well-plate, read-out: S1P3 binding Ki (M) (384 well-plate)
[5] = 96 well-plate, read-out: S1P1 binding Ki (M) (96 well-plate)
[6] = 384 well-plate, read-out: S1P1 binding Ki (M) (384 well-plate)

Sequence of S1P3 (Q99500 whole entry, species assumed): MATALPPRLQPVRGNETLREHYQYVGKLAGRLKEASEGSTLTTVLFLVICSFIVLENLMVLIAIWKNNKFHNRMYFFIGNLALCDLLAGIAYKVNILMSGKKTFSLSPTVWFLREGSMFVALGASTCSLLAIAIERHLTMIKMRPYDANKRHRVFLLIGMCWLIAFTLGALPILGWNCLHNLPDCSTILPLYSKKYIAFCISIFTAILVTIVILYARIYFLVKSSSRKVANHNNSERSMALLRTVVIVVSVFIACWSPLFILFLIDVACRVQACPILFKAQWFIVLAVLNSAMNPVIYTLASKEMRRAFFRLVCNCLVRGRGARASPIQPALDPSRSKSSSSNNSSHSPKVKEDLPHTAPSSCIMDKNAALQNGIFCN

Structure (SMILES)	Ki (S1P3; [3])	Ki (S1P3; [4])	EC50 (S1P1 [1])	Ki (S1P1 [2]; [5])	Ki (S1P1 [2]; [6])
COCc1cc(-c2nc(-c3ccc(CNCC(=O)O)c(F)c3)no2)ccc1-c1ccccc1C [Example 83, N-(2-fluoro-4-{5-[2-(methoxymethyl)-2′-methylbiphenyl-4-yl]-1,2,4-oxadiazol-3-yl}benzyl)glycine, hydrochloride salt]	1.01e-07 M	2.75e-07 M	1.2 nM	7.39e-11 M	1.8e-10 M
COCc1cc(-c2nc(-c3cccc(CN(C)CC(=O)O)c3)no2)ccc1-c1cc(F)ccc1Cl [Example 65, N-(3-{5-[2′-chloro-5′-fluoro-2-(methoxymethyl)biphenyl-4-yl]-1,2,4-oxadiazol-3-yl}benzyl)-N-methylglycine, hydrochloride salt]	2.31e-07 M	3.68e-07 M	21.8 nM	5.31e-10 M	–
COCc1cc(-c2nc(-c3cccc(CC(=O)N(C)CC(=O)O)c3)no2)ccc1-c1ccccc1C [Example 44, N-[(3-{5-[2-(methoxymethyl)-2′-methylbiphenyl-4-yl]-1,2,4-oxadiazol-3-yl}phenyl)acetyl]-N-methylglycine]	–	1.31e-07 M	115 nM	1.71e-09 M	1.02e-08 M
CCN(CCC(=O)O)Cc1cccc(-c2noc(-c3ccc(-c4ccccc4F)c(COC)c3)n2)c1 [Example 62, N-ethyl-N-(3-{5-[2′-fluoro-2-(methoxymethyl)biphenyl-4-yl]-1,2,4-oxadiazol-3-yl}benzyl)-beta-alanine, hydrochloride salt]	1.72e-08 M	–	2.91 nM	1.68e-10 M	–
CCc1cc(-c2noc(-c3ccc(-c4ccccc4C)c(COC)c3)n2)ccc1CN(C)CC(=O)O [Example 124, 2-((2-ethyl-4-(5-(2-(methoxymethyl)-2′-methylbiphenyl-4-yl)-1,2,4-oxadiazol-3-yl)benzyl)(methyl)amino)acetic acid]	–	4.1e-06 M	23.2 nM	–	1.98e-09 M
Cc1cc(-c2nc(-c3ccc(CN(C)CC(=O)O)cc3)no2)ccc1-c1ccccc1C(F)F [Example 137, N-(4-{5-[2′-(difluoromethyl)-2-methylbiphenyl-4-yl]-1,2,4-oxadiazol-3-yl}benzyl)-N-methylglycine, hydrochloride salt]	–	–	28.9 nM	8.55e-10 M	2.37e-09 M
CCOc1cc(-c2nc(-c3ccc(CN(C)CC(=O)O)c(F)c3)no2)ccc1-c1ccccc1C [Example 92, N-{4-[5-(2-ethoxy-2′-methylbiphenyl-4-yl)-1,2,4-oxadiazol-3-yl]-2-fluorobenzyl}-N-methylglycine, hydrochloride salt]	9.91e-08 M	–	7.91 nM	1.72e-10 M	–
COCc1cc(-c2nc(-c3cccc(CN(C)CC(=O)O)c3)no2)ccc1-c1cccc(F)c1C [Example 35, N-(3-{5-[3′-fluoro-2-(methoxymethyl)-2′-methylbiphenyl-4-yl]-1,2,4-oxadiazol-3-yl}benzyl)-N-methylglycine, hydrochloride salt]	9.4e-08 M	–	5.88 nM	1.98e-10 M	–
COCc1cc(-c2nc(-c3cccc(CN(C)CC(=O)O)c3)no2)ccc1-c1cc(F)ccc1C [Example 37, N-(3-{5-[5′-fluoro-2-(methoxymethyl)-2′-methylbiphenyl-4-yl]-1,2,4-oxadiazol-3-yl}benzyl)-N-methylglycine, hydrochloride salt]	6.34e-08 M	–	6.56 nM	3.33e-10 M	–
COCc1cc(-c2nc(-c3cccc(CN(C)CC(=O)O)c3)no2)ccc1N1CCCCC1 [Example 29]	–	2.38e-07 M	7.33 nM	1.47e-10 M	–
COCc1cc(-c2nc(-c3cc(F)c(CNCC(=O)O)c(F)c3)no2)ccc1-c1ccccc1C [Example 147, 2-(2,6-difluoro-4-(5-(2-(methoxymethyl)-2′-methylbiphenyl-4-yl)-1,2,4-oxadiazol-3-yl)benzylamino)acetic acid, hydrochloride salt]	–	1.35e-07 M	1.54 nM	–	6.95e-10 M
COCc1cc(-c2nc(-c3ccc(CN(C)CC(=O)O)c(F)c3F)no2)ccc1-c1ccccc1C [Example 149, 2-((2,3-difluoro-4-(5-(2-(methoxymethyl)-2′-methylbiphenyl-4-yl)-1,2,4-oxadiazol-3-yl)benzyl)(methyl)amino)acetic acid, hydrochloride salt]	–	1.48e-07 M	9.54 nM	–	1.26e-09 M
CCN(CCC(=O)O)Cc1cccc(-c2noc(-c3ccc(-c4ccccc4C)c(COC)c3)n2)c1 [Example 63, N-ethyl-N-(3-{5-[2-(methoxymethyl)-2′-methylbiphenyl-4-yl]-1,2,4-oxadiazol-3-yl}benzyl)-beta-alanine, hydrochloride salt]	3.98e-08 M	1.25e-07 M	3.38 nM	1.61e-10 M	–
C[C@H]1CCCCN1c1ccc(-c2nc(-c3cccc(CN(C)CC(=O)O)c3)no2)cc1C(F)(F)F [Example 46, N-methyl-N-(3-{5-[4-[(2S)-2-methylpiperidin-1-yl]-3-(trifluoromethyl)phenyl]-1,2,4-oxadiazol-3-yl}benzyl)glycine, hydrochloride salt]	1.31e-07 M	–	5.19 nM	1.07e-10 M	–
COCc1cc(-c2nc(-c3cccc(CCN(C)CC(=O)O)c3)no2)ccc1-c1ccccc1C [Example 86, [(2-{3-[5-(2-Methoxymethyl-2′-methyl-biphenyl-4-yl)-[1,2,4]oxadiazol-3-yl]-phenyl}-ethyl)-methyl-amino]-acetic acid]	3.18e-08 M	–	4.98 nM	1.46e-10 M	4.97e-10 M
COCc1cc(-c2nc(-c3cccc(CN(C)CC(=O)O)c3)no2)ccc1-c1ccc(F)cc1C [Example 36, N-(3-{5-[4′-fluoro-2-(methoxymethyl)-2′-methylbiphenyl-4-yl]-1,2,4-oxadiazol-3-yl}benzyl)-N-methylglycine, hydrochloride salt]	–	2.71e-07 M	14.8 nM	5.59e-10 M	1.97e-09 M
COCc1cc(-c2nc(-c3ccc(CN(C)CC(=O)O)cc3C(F)(F)F)no2)ccc1-c1ccccc1C [Example 143, 2-((4-(5-(2-(methoxymethyl)-2′-methylbiphenyl-4-yl)-1,2,4-oxadiazol-3-yl)-3-(trifluoromethyl)benzyl)(methyl)amino)acetic acid]	–	1.83e-06 M	85.5 nM	–	2.32e-09 M
COCc1cc(-c2nc(-c3cccc(CN(CC(=O)O)C(C)C)c3)no2)ccc1-c1ccccc1C [Example 58, N-isopropyl-N-(3-{5-[2-(methoxymethyl)-2′-methylbiphenyl-4-yl]-1,2,4-oxadiazol-3-yl}benzyl)glycine, hydrochloride salt]	2.02e-07 M	–	7.87 nM	3.91e-10 M	–
COCc1cc(-c2nc(-c3cccc(CCN(C)CC(=O)OC(C)(C)C)c3)no2)ccc1-c1ccccc1C [Example 75]	–	–	195 nM	3.04e-09 M	–
